Source: ChEMBL document CHEMBL3232787, “Lipopeptides from the tropical marine cyanobacterium Symploca sp” (J Nat Prod, 2014)

Assays:
HCT-116 = assay: Cytotoxicity against human HCT116 cells after 120 hrs by hemocytometer; format: functional, cell-based; conditions: HCT-116, 120 h
KB = assay: Cytotoxicity against human KB cells; format: functional, cell-based

Compound | IC50 (HCT-116) | IC50 (KB)
CC[C@H](C)[C@@H](NC(=O)[C@H](CCC(N)=O)N(C)C(=O)[C@H](OC(=O)[C@@H](O)C(C)C)C(C)C)C(=O)N[C@@H](C)C(=O)N(C)[C@H](Cc1ccccc1)C(=O)N1CCC[C@H]1C(=O)OC | > 25 µM | 
CC[C@H](C)[C@H](NC(=O)[C@H](CCC(N)=O)N(C)C(=O)[C@H](OC(=O)[C@@H](O)C(C)C)C(C)C)C(=O)N[C@@H](C)C(=O)N[C@H](Cc1ccccc1)C(=O)N1CCC[C@H]1C(=O)OC | 25 µM | 
CC[C@H](C)[C@H](O)C(=O)N[C@@H](CC(C)C)C(=O)N(C)[C@@H](CCC(N)=O)C(=O)N[C@H](C(=O)NCC(=O)N(C)[C@H](Cc1ccccc1)C(=O)N1CCC[C@H]1C(=O)OC)[C@@H](C)CC [TASIAMIDE] |  | 0.48 µM
